Data reported in patent US4000281A, “Pyrazole derivatives” (priority 1971, dated 1976).
In brackets after ≈: the same amount, converted by molar mass. Read-outs that look alike come from different tables or passages of the source.

Key:
[1] = system: rhinovirus type 27 (strain Cor. 28); experiment: Gradient plate plaque-reduction technique in HeLa cells, rhinovirus type 27; type: cell-based, human; design: key to ACTIVITY: +: active
Description: (§1) A further series of tests was performed in which the inhibitory concentrations of 3-(4-pyridyl)-4-(2-hydroxyphenyl)-5-ethylpyrazole against various human types of rhinovirus were determined by the gradient plate plaque-reduction technique. Cultures of HeLa cancer cells were used of which two were prepared for each test. One culture was treated with the above compound which was applied in gradient while the other culture served as control. Both cultures were then infected with a human type of rhinovirus. The inhibitory concentration was determined by measuring the zone of inhibition on the cellsheet. Six types of rhinovirus were employed and the following results registered.

[2] = system: Influenza virus Maryland B; experiment: Mouse-Survival Test (Test No. 1), Influenza Maryland B; type: in vivo, mice; conditions: for Survival Percent: virus dose 79 multiples of LD50; for S.I.: virus dose 79 multiples of LD50, significant if >1.24
Herpes Simplex [3] = experiment: microbe, parasite or virus in culture; type: cell-based, rabbit; conditions: Oryctolagus cuniculus, 96 h; dose of 250 μg; tissue first infected, compound in overlay; 50% considered significant; read-out: plaque-reduction
Influenza PR8 = experiment: 48-Hour Mouse Test (Test No. 2), Influenza PR8; type: in vivo, mice; conditions: virus dose not ascertained, read-out: Log Reductions (EID50) as compared with controls
Influenza virus Swine A = type: in vivo, mice; conditions: 500 mg/kg IP
[4] = system: rhinovirus type 5 (prototype); experiment: Inhibition of rhinovirus cytopathogenic effect in human embryonic lung cultures, type 5; type: cell-based; conditions: 50 and 75 μgm/ml
Description: (§2) Other tests were carried out to determine the inhibitory effect of 3-(4-pyridyl)-4-(2-hydroxyphenyl)-5-ethylpyrazole on various types of rhinovirus.
(§3) In each test two cultures of human embryonic lung were prepared of which one was treated with the above compound while the other served as control. The cultures were then infected with a strain of rhinovirus. The compound was used in concentrations of 50 and 75 μgm/ml and was considered to be active if the cytopathogenic effect of the rhinovirus was reduced by at least 75% as compared to the control culture. This cytopathogenic effect was determined by counting the number of plaques formed by destroyed cells.
(§4) Seven human types of rhinovirus were employed and the following results registered: […]

Influenza Swine A = experiment: animal or person; type: in vivo, mice; conditions: in Mus musculus, 48 h, read-out: Log Reductions (EID50) as compared with controls
[5] = system: rhinovirus type 55 (strain Wis 315E); experiment: Gradient plate plaque-reduction technique in HeLa cells, rhinovirus type 55; type: cell-based, human; design: key to ACTIVITY: +: active
Description: as §1

Herpes = experiment: Herpes-induced keratitis in the rabbit eye; type: in vivo; conditions: local use, 2, 1 and 0.5%
Description: Another test was carried out with this same compound in order to evaluate its action against Herpes-induced keratitis in the rabbit eye.

Influenza Jap 305 = experiment: 48-Hour Mouse Test (Test No. 2), Influenza Jap 305; type: in vivo, mice; conditions: read-out: Log Reductions (EID50) as compared with controls
[6] = system: rhinovirus type 14 (strain 1059); experiment: Gradient plate plaque-reduction technique in HeLa cells, rhinovirus type 14; type: cell-based, human; design: key to ACTIVITY: +: active; -: inactive
Description: as §1

[7] = system: rhinovirus type 3 (prototype); experiment: Inhibition of rhinovirus cytopathogenic effect in human embryonic lung cultures, type 3; type: cell-based; conditions: 50 and 75 μgm/ml
Description: as §2, §3, §4

Influenza virus = type: in vivo, mice; conditions: for S.I. / Survival Percent / MDD (Mean Day of Death): intranasal 10% suspension, 25 multiples of LD50; for MDD (Mean Day of Death): virus alone 6.20
[8] = system: rhinovirus type 50 (strain A2 No.58); experiment: Gradient plate plaque-reduction technique in HeLa cells, rhinovirus type 50; type: cell-based, human; design: key: +: active
Description: as §1

[9] = system: rhinovirus type 39 (strain 209); experiment: Gradient plate plaque-reduction technique in HeLa cells, rhinovirus type 39; type: cell-based, human; design: key: +: active
Description: as §1

[10] = system: rhinovirus type 14 (prototype); experiment: Inhibition of rhinovirus cytopathogenic effect in human embryonic lung cultures, type 14; type: cell-based; conditions: 50 and 75 μgm/ml
Description: as §2, §3, §4

Influenza viruses = experiment: Mouse-Survival Test (Test No. 1), Influenza virus strain not given; type: in vivo, mice; conditions: unidentified influenza virus, 360 h
[11] = system: rhinovirus type 9 (prototype); experiment: Inhibition of rhinovirus cytopathogenic effect in human embryonic lung cultures, type 9; type: cell-based; conditions: 50 and 75 μgm/ml
Description: as §2, §3, §4

Herpes Simplex [12] = experiment: microbe, parasite or virus in culture; type: cell-based, rabbit; conditions: Oryctolagus cuniculus, 96 h; dose of 250 μg; virus pretreated with compound one hour; 50% considered significant; read-out: plaque-reduction
Influenza virus Jap 305 = experiment: Mouse-Survival Test (Test No. 1), Influenza Jap 305; type: in vivo, mice; conditions: for S.I.: significant if >1.24
[13] = system: rhinovirus type 7 (SF1470); experiment: Inhibition of rhinovirus cytopathogenic effect in human embryonic lung cultures, type 7; type: cell-based; conditions: 50 and 75 μgm/ml
Description: as §2, §3, §4

[14] = system: rhinovirus type 44 (strain F01 3744); experiment: Gradient plate plaque-reduction technique in HeLa cells, rhinovirus type 44; type: cell-based, human; design: key to ACTIVITY: +: active; -: inactive
Description: as §1

[15] = system: rhinovirus type 8 (prototype); experiment: Inhibition of rhinovirus cytopathogenic effect in human embryonic lung cultures, type 8; type: cell-based; conditions: 50 and 75 μgm/ml
Description: as §2, §3, §4

[16] = Enterovirus, read-out: MINIMUM INHIBITORY Concentration
[17] = ip, read-out: Survival Index (S.I.)
[18] = Jap 305, 5 mg/kg IP, virus dose 20 multiples of LD50
[19] = Jap 305, 50 mg/kg IP, virus dose 32 multiples of LD50
[20] = Jap 305, 50 mg/kg PO, virus dose 3.2 multiples of LD50
[21] = Jap 305, 500 mg/kg IP, virus dose 32 multiples of LD50
[22] = Jap 305, 500 mg/kg PO, virus dose 3.2 multiples of LD50

In the case of `CCc1[nH]nc(-c2ccncc2)c1-c1ccccc1O` [Compound A, 3-(4-pyridyl)-4-(2-hydroxyphenyl)-5-ethylpyrazole], the ACTIVITY [1] is reported as “+”, the MIC [1, 16] is reported as 15 to 16 µg/mL (≈ 56.5 to 60.3 µM) and the “Survival Percent” value ([2]; 500 mg/kg IP) is reported as 10%. For the same compound, the S.I. ([2]; 500 mg/kg IP) was 1.47, the “Survival Percent” value ([2]; 500 mg/kg PO) was 12% and the S.I. ([2]; 500 mg/kg PO) was 1.52. It also gave an inhibition at 250 µg (Herpes Simplex [3]) of 100%, a log reduction at 5 mg/kg (Influenza PR8; PR8, 5 mg/kg IP) of 1.41 and a log reduction at 50 mg/kg (Influenza PR8; PR8, 50 mg/kg IP) of 1.69. For the same compound, the log reduction at 50 mg/kg (Influenza PR8; PR8, 50 mg/kg PO) was 1.21, the log reduction at 500 mg/kg (Influenza PR8; PR8, 500 mg/kg IP) was 1.87 and the log reduction at 500 mg/kg (Influenza PR8; PR8, 500 mg/kg PO) was 1.07. For the same compound, the “Survival Percent” value (Influenza virus Swine A; virus dose 14 multiples of LD50) was 50%, the S.I. (Influenza virus Swine A; virus dose 14 multiples of LD50, significant if >1.24) was 1.52 and the ACTIVITY [4] was “+ (active)”. It also gave a log reduction at 50 mg/kg (Influenza Swine A; ip) of 1, a log reduction at 500 mg/kg (Influenza Swine A; ip) of 1.8 and a log reduction at 5 mg/kg (Influenza Swine A; po) of 1.1. The log reduction at 50 mg/kg (Influenza Swine A; po) was 1.4, the ACTIVITY [5] was “+” and the MIC [5, 16] was 20 µg/mL (≈ 75.4 µM). The “formation of geographic keratitic lesions as compared to infected control animals” value (Herpes) was “inhibited the formation of geographic keratitic lesions”, the log reduction at 50 mg/kg (Influenza Jap 305; ip) was 1.53 and the log reduction at 5 mg/kg (Influenza Jap 305; po) was 2. For the same compound, the log reduction at 50 mg/kg (Influenza Jap 305; po) was 2.7, the log reduction at 500 mg/kg (Influenza Jap 305; po) was 2.5 and the ACTIVITY [6] was “-”. For the same compound, the MIC [6, 16] was 30 µg/mL (≈ 113 µM), the ACTIVITY [7] was “+ (active)” and the S.I. (Influenza virus; 30 min. before infection) was 1.90. The “Survival Percent” value (Influenza virus; 30 min. before infection) was 40%, the “MDD (Mean Day of Death)” value (Influenza virus; 30 min. before infection) was 11.80 days and the S.I. (Influenza virus; 2 hr. before infection) was 2.07. For the same compound, the “Survival Percent” value (Influenza virus; 2 hr. before infection) was 70%, the “MDD (Mean Day of Death)” value (Influenza virus; 2 hr. before infection) was 12.80 days and the S.I. (Influenza virus; 4 hr. before infection) was 1.88. For the same compound, the “Survival Percent” value (Influenza virus; 4 hr. before infection) was 60%, the “MDD (Mean Day of Death)” value (Influenza virus; 4 hr. before infection) was 11.70 days and the S.I. (Influenza virus; 6 hr. before infection) was 1.90. For the same compound, the “Survival Percent” value (Influenza virus; 6 hr. before infection) was 50%, the “MDD (Mean Day of Death)” value (Influenza virus; 6 hr. before infection) was 11.80 days and the “persistence of the effect: differences between times of administration” value (Influenza virus; mouse, in vivo) was “no significant differences”. For the same compound, the protective effect (Influenza virus; mouse, in vivo) was “definite protective effect at all times of administration”, the “survival period of the treated animals that did die, relative to controls” value (Influenza virus; mouse, in vivo) was “approximately twice that of the controls” and the ACTIVITY [8] was “+”. For the same compound, the ACTIVITY [9] was “+”, the ACTIVITY [10] was “+ (active)” and the response vs control in vivo at 50 mg/kg (Influenza viruses; [17]) was 137%. For the same compound, the response vs control in vivo at 500 mg/kg (Influenza viruses; [17]) was 171%, the responders at 50 mg/kg (Influenza viruses; ip, read-out: Survival Percent) was 0% and the responders at 500 mg/kg (Influenza viruses; ip, read-out: Survival Percent) was 37.5%. For the same compound, the response vs control in vivo at 500 mg/kg (Influenza viruses; po, read-out: Survival Index (S.I.)) was 171%, the responders at 500 mg/kg (Influenza viruses; po, read-out: Survival Percent) was 33.3% and the ACTIVITY [11] was “+ (active)”. For the same compound, the inhibition at 250 µg (Herpes Simplex [12]) was 60%, the “Survival Percent” value (Influenza virus Jap 305; [18]) was 20% and the S.I. (Influenza virus Jap 305; [18]) was 1.34. For the same compound, the “Survival Percent” value (Influenza virus Jap 305; [19]) was 10%, the S.I. (Influenza virus Jap 305; [19]) was 1.34 and the “Survival Percent” value (Influenza virus Jap 305; [20]) was 60%. The S.I. (Influenza virus Jap 305; [20]) was 1.43, the “Survival Percent” value (Influenza virus Jap 305; [21]) was 60% and the S.I. (Influenza virus Jap 305; [21]) was 2.04. The “Survival Percent” value (Influenza virus Jap 305; [22]) was 66%, the S.I. (Influenza virus Jap 305; [22]) was 1.43 and the ACTIVITY [13] was “+ (active)”. The ACTIVITY [14] was “-”, the MIC [14, 16] was 30 µg/mL (≈ 113 µM) and the ACTIVITY [15] was “+ (active)”.
